The results in this text go back to patent US20060216333A1, “Methods related to the treatment of mucosal associated conditions” (priority 2003, published 2006).

One test has as its system TNF. Put plainly: Serum and vaginal tissue TNF after intravaginal dosing of rats (ELISA). The note with it: cotton pellet device removed after 2 hours; for TNF Tissue: vaginal tissue, per 200 mg. The format is in vivo, rat. As to the method: (§1) In the examples below the serum and intravaginal cytokine data were obtained using the following general test method.
(§2) Rats were acclimated to collars (Lomir Biomedical, Malone, N.Y.) around the neck on two consecutive days prior to actual dosing. Rats were collared to prevent removal of the device and ingestion of the drug. Animals were then dosed intravaginally with a removable device or with […] of cream. Single dosed rats received one intravaginal dose with samples collected at various times following dosing. Blood was collected by cardiac puncture. Blood was allowed to clot briefly at room temperature and serum was separated from the clot via centrifugation. The serum was stored at −20° C. until it was analyzed for cytokine concentrations.
(§3) Following blood collection, the rats were euthanized and their vaginal tract, including the cervix, was then removed and the tissue was weighed, placed in a sealed 1.8 mL cryovial and flash frozen in liquid nitrogen. The frozen vaginal tissue sample was then suspended in 1.0 mL of RPMI medium (Celox, St. Paul, Minn.) containing 10% fetal bovine serum (Atlas, Fort Collins, Colo.), 2 mM L-glutamine, penicillin/streptomycin and 2-mercaptoethanol (RPMI complete) combined with a protease inhibitor cocktail set III (Calbiochem, San Diego, Calif.). The tissue was homogenized using a Tissue Tearor (Biospec Products, Bartlesville, Okla.) for approximately one minute. The tissue suspension was then centrifuged at 2000 rpm for 10 minutes under refrigeration to pellet the debris, and the supernatant collected and stored at −20° C. until analyzed for cytokine concentrations.
(§4) ELISA kits for rat TNF were purchased from BD PharMingen (San Diego, Calif.) and the rat MCP-1 ELISA kits were purchased from BioSource Intl. (Camarillo, Calif.).
(§5) Both kits were performed according to manufacturer's specifications. Results for both TNF and MCP-1 are expressed in pg/mL and are normalized per 200 mg of tissue. […] “Post dosing” means after treatment initiation. For example, if a device was inserted a time 0 hours and removed at 2 hours and cytokines were assayed at 4 hours, then the cytokines were assayed at 4 hours post dosing.
Background: ELISA stands for enzyme-linked immunosorbent assay.

A further test has as its system MCP-1. Put plainly: Serum and vaginal tissue MCP-1 after intravaginal dosing of rats (ELISA). The note with it: cotton pellet device removed after 2 hours; for MCP-1 Tissue: vaginal tissue, per 200 mg. The format is in vivo, rat. How it is done:
as §1, §2, §3, §4, §5

Setting [1] is: 4 hours post dosing, 1% in 50/50 ISA/IPM, Example 6.
The mark [2] stands for this setting: 2 hr post dose, 5% in 50/50 ISA/IPM, Example 7.
[3] abbreviates: 4 hr post dose, 5% in 50/50 ISA/IPM, Example 7.
The mark [4] stands for this setting: 6 hr post dose, 5% in 50/50 ISA/IPM, Example 7.

The structures appear in SMILES notation.

In the case of `CCOCc1nc2c(N)nc3ccccc3c2n1CCOCCNC(=O)Nc1ccccc1` [IRM 8, N-(2-{2-[4-amino-2-(ethoxymethyl)-1H-imidazo[4,5-c]quinolin-1-yl]ethoxy}ethyl)-N′-phenylurea], in the test on TNF (setting [1]), the “TNF Serum” value is 0 pg/mL and the “TNF Tissue” value is 294 pg/mL. Moreover, in the test on MCP-1 (setting [1]), the “MCP-1 Serum” value is 82 pg/mL and the “MCP-1 Tissue” value is listed as 331 pg/mL.

With `CCCCc1nc2c(N)nc3ccccc3c2n1CCCS(C)(=O)=O` [IRM 10, 2-butyl-1-[3-(methylsulfonyl)propyl]-1H-imidazo[4,5-c]quinoline-4-amine], the “TNF Serum” value with TNF (setting [2]) is 16 pg/mL; with TNF (setting [3]) it was 25 pg/mL; with TNF (setting [4]) it was 10 pg/mL. Besides, the “TNF Tissue” value in the test with TNF (setting [2]) was determined as 1110 pg/mL; in the test with TNF (setting [3]), 887 pg/mL; in the test on TNF (setting [4]) it was 519 pg/mL. Moreover, the entries for the “MCP-1 Serum” value in the test with MCP-1 (setting [2]), in the test with MCP-1 (setting [3]) and in the test on MCP-1 (setting [4]) were 111 pg/mL, 160 pg/mL and 155 pg/mL, respectively. Also, the “MCP-1 Tissue” value in the test on MCP-1 (setting [2]) stood at 739 pg/mL; in the test with MCP-1 (setting [3]), 1440 pg/mL; with MCP-1 (setting [4]), 975 pg/mL.

As for `Nc1nc2ccccc2c2c1ncn2CCOCc1ccncc1` [IRM 9, 1-[2-(pyridin-4-ylmethoxy)ethyl]-1H-imidazo[4,5-c]quinolin-4-amine], the “TNF Serum” value in the test with TNF (setting [2]) is on record as 30 pg/mL; with TNF (setting [3]), 4 pg/mL; in the test on TNF (setting [4]), 8 pg/mL. The “TNF Tissue” value was 597 pg/mL in the test on TNF (setting [2]), 697 pg/mL with TNF (setting [3]) and 248 pg/mL with TNF (setting [4]). In addition, the “MCP-1 Serum” value in the test with MCP-1 (setting [2]) was determined as 85 pg/mL; in the test with MCP-1 (setting [3]), 131 pg/mL; in the test on MCP-1 (setting [4]) it was 180 pg/mL. Further, the “MCP-1 Tissue” value in the test on MCP-1 (setting [2]) is 328 pg/mL; with MCP-1 (setting [3]) it was 1556 pg/mL; in the test on MCP-1 (setting [4]), 850 pg/mL.

As for `CCCCNC(=O)NCCCn1c(CCCC)nc2c(N)nc3ccccc3c21` [IRM 5], in the test with TNF (setting [1]), the “TNF Serum” value is reported as 1 pg/mL and the “TNF Tissue” value is recorded as 358 pg/mL. For the same compound, in the test with MCP-1 (setting [1]), the “MCP-1 Serum” value is on record as 108 pg/mL and the “MCP-1 Tissue” value amounted to 958 pg/mL.

Regarding `CCCCc1nc2c(N)nc3ccccc3c2n1CCS(=O)(=O)C(C)C` [IRM 6, 2-butyl-1-{2-[(1-methylethyl)sulfonyl]ethyl}-1H-imidazo[4,5-c]quinolin-4-amine], in the test with TNF (setting [1]), the “TNF Serum” value came out at 1 pg/mL and the “TNF Tissue” value is 491 pg/mL. Also, in the test with MCP-1 (setting [1]), the “MCP-1 Serum” value turned out to be 114 pg/mL and the “MCP-1 Tissue” value amounted to 1840 pg/mL.

With `CCOCc1nc2c(N)nc3ccccc3c2n1CCNC(=O)NC(C)C` [IRM 7, N-{2-[4-amino-2-(ethoxymethyl)-1H-imidazo[4,5-c]quinolin-1-yl]ethyl}-N′-isopropylurea], the “TNF Serum” value with TNF (setting [2]) is 1 pg/mL; with TNF (setting [1]), 0 pg/mL; in the test on TNF (setting [3]), 0 pg/mL; in the test with TNF (setting [4]) it was 2 pg/mL. Also, the “TNF Tissue” value with TNF (setting [2]) is 512 pg/mL; in the test on TNF (setting [1]) it was 219 pg/mL; in the test on TNF (setting [3]), 460 pg/mL; in the test with TNF (setting [4]) it was 267 pg/mL. Further, the “MCP-1 Serum” value was found to be 92 pg/mL in the test on MCP-1 (setting [2]), 93 pg/mL in the test on MCP-1 (setting [1]), 112 pg/mL in the test on MCP-1 (setting [3]) and 140 pg/mL in the test with MCP-1 (setting [4]). The “MCP-1 Tissue” value in the test on MCP-1 (setting [2]) is listed as 498 pg/mL; in the test on MCP-1 (setting [1]), 642 pg/mL; in the test with MCP-1 (setting [3]), 851 pg/mL; with MCP-1 (setting [4]) it was 670 pg/mL.

Consider `COCCc1nc2c(N)nc3ccccc3c2n1CCCCNS(C)(=O)=O` [IRM 4, N-{4-[4-amino-2-(2-methoxyethyl)-1H-imidazo[4,5-c]quinolin-1-yl]butyl}methanesulfonamide], for which, in the test on TNF (setting [1]), the “TNF Serum” value was found to be 0 pg/mL and the “TNF Tissue” value came out at 109 pg/mL. Besides, in the test with MCP-1 (setting [1]), the “MCP-1 Serum” value was determined as 105 pg/mL and the “MCP-1 Tissue” value was determined as 713 pg/mL.
